Reference: the NIST ThermoML archive (doi:10.1016/j.jct.2015.11.007)
± gives the expanded uncertainty stated by the source.

How the values were obtained:
[1] = Crystal; DTA
[2] = Molar enthalpy of transition or fusion; conditions: Crystal; DSC

NC(=O)CN1CC(O)CC1=O (configuration not stated) [4-hydroxy-2-oxo-1-pyrrolidineacetamide]
Normal melting temperature [1]: 172.13 ± 0.61 °C | Molar enthalpy of transition or fusion [2]: 8.29 ± 0.335 kcal/mol
